Results published in paper PMC7377474, “Preclinical characterization of CPL302-253, a selective inhibitor of PI3Kδ, as the candidate for the inhalatory treatment and prevention of Asthma” (PLoS ONE, 2020).

Columns and labels:
[1] = target: T1, ABL1-nonphosphorylated (Homo sapiens, UniProt P00519); assay: KINOMEScan single concentration; assay type: binding; details: 1 μM
T1 construct: purchased Discoverex (KINOMEscan service)
Protocol: (§1) The inhibitor-kinase binding affinity was assessed in KINOMEscan™ assay (Discoverex) according to service provider’s protocol. In brief, in this binding assay the studied compound in solution is incubated with DNA-tagged kinase and kinase active-site directed ligand bound to the beads. The compound competes for binding to kinase with the immobilized ligand. After incubation beads are removed from the solution and kinase bound to ligand is quantified by qPCR. The strength of compound binding is determined based on its ability to block kinase-ligand binding. 11-point 3-fold serial dilution of CPL302-253 was used in order to determine its binding constants (Kd) against different isotypes of class I PI3K. The single concentration of CPL302-253 was used in order to determine its specificity in abroad panel of 468 human kinases. The measure of compounds affinity to each kinase in the panel was the percentage of kinase activity inhibition by tested ligand in comparison to the control.

[2] = target: T2, MEK5 (Homo sapiens, UniProt Q13163); assay: KINOMEScan single concentration; assay type: binding; details: 1 μM
T2 construct: purchased Discoverex (KINOMEscan service)
Protocol: as §1

[3] = target: T3, PIK3CA (Homo sapiens, UniProt P42336); assay: KINOMEScan single concentration; assay type: binding; details: 1 μM
T3 construct: purchased Discoverex (KINOMEscan service)
Protocol: as §1

[4] = target: T4, PIK3CA(C420R) (Homo sapiens, UniProt P42336, C420R); assay: KINOMEScan single concentration; assay type: binding; details: 1 μM
T4 construct: purchased Discoverex (KINOMEscan service)
Protocol: as §1

[5] = target: T5, PIK3CA(E542K) (Homo sapiens, UniProt P42336, E542K); assay: KINOMEScan single concentration; assay type: binding; details: 1 μM
T5 construct: purchased Discoverex (KINOMEscan service)
Protocol: as §1

[6] = target: T6, PIK3CA(E545A) (Homo sapiens, UniProt P42336, E545A); assay: KINOMEScan single concentration; assay type: binding; details: 1 μM
T6 construct: purchased Discoverex (KINOMEscan service)
Protocol: as §1

[7] = target: T7, PIK3CA(E545K) (Homo sapiens, UniProt P42336, E545K); assay: KINOMEScan single concentration; assay type: binding; details: 1 μM
T7 construct: purchased Discoverex (KINOMEscan service)
Protocol: as §1

[8] = target: T8, PIK3CA(H1047L) (Homo sapiens, UniProt P42336, H1047L); assay: KINOMEScan single concentration; assay type: binding; details: 1 μM
T8 construct: purchased Discoverex (KINOMEscan service)
Protocol: as §1

[9] = target: T9, PIK3CA(H1047Y) (Homo sapiens, UniProt P42336, H1047Y); assay: KINOMEScan single concentration; assay type: binding; details: 1 μM
T9 construct: purchased Discoverex (KINOMEscan service)
Protocol: as §1

[10] = target: T10, PIK3CA(I800L) (Homo sapiens, UniProt P42336, I800L); assay: KINOMEScan single concentration; assay type: binding; details: 1 μM
T10 construct: purchased Discoverex (KINOMEscan service)
Protocol: as §1

[11] = target: T11, PIK3CA(M1043I) (Homo sapiens, UniProt P42336, M1043I); assay: KINOMEScan single concentration; assay type: binding; details: 1 μM
T11 construct: purchased Discoverex (KINOMEscan service)
Protocol: as §1

[12] = target: T12, PIK3CA(Q546K) (Homo sapiens, UniProt P42336, Q546K); assay: KINOMEScan single concentration; assay type: binding; details: 1 μM
T12 construct: purchased Discoverex (KINOMEscan service)
Protocol: as §1

[13] = target: T13, PIK3CB (Homo sapiens, UniProt P42338); assay: KINOMEScan single concentration; assay type: binding; details: 1 μM
T13 construct: purchased Discoverex (KINOMEscan service)
Protocol: as §1

[14] = target: T14, PIK3CD (Homo sapiens, UniProt O00329); assay: KINOMEScan single concentration; assay type: binding; details: 1 μM
T14 construct: purchased Discoverex (KINOMEscan service)
Protocol: as §1

[15] = target: T15, PIK3CG (Homo sapiens, UniProt P48736); assay: KINOMEScan single concentration; assay type: binding; details: 1 μM
T15 construct: purchased Discoverex (KINOMEscan service)
Protocol: as §1

[16] = target: T16, ULK2 (Homo sapiens, UniProt Q8IYT8); assay: KINOMEScan single concentration; assay type: binding; details: 1 μM
T16 construct: purchased Discoverex (KINOMEscan service)
Protocol: as §1

[17] = target: T17, CAV1.2 (Homo sapiens, UniProt Q13936); assay: SafetyScan44; assay type: cell-based; details: 10 μM; Blocker mode
T17 construct: purchased DiscoverX (Eurofins) SafetyScan44
Protocol: (§2) SafetyScan44 assay was performed by DiscoverX according to service provider’s protocol.

[18] = target: T18, CCKAR (Homo sapiens, UniProt P32238); assay: SafetyScan44; assay type: cell-based; details: 10 μM
T18 construct: purchased DiscoverX (Eurofins) SafetyScan44
Protocol: as §2

[19] = target: T19, CHRM1 (Homo sapiens, UniProt P11229); assay: SafetyScan44; assay type: cell-based; details: 10 μM
T19 construct: purchased DiscoverX (Eurofins) SafetyScan44
Protocol: as §2

[20] = target: T20, CHRM2 (Homo sapiens, UniProt P08172); assay: SafetyScan44; assay type: cell-based; details: 10 μM
T20 construct: purchased DiscoverX (Eurofins) SafetyScan44
Protocol: as §2

[21] = target: T21, CNR2 (Homo sapiens, UniProt P34972); assay: SafetyScan44; assay type: cell-based; details: 10 μM
T21 construct: purchased DiscoverX (Eurofins) SafetyScan44
Protocol: as §2

[22] = target: T22, COX1 (Homo sapiens, UniProt P23219); assay: SafetyScan44; assay type: cell-based; details: 10 μM; Inhibitor mode
T22 construct: purchased DiscoverX (Eurofins) SafetyScan44
Protocol: as §2

[23] = target: T23, COX2 (Homo sapiens, UniProt P35354); assay: SafetyScan44; assay type: cell-based; details: 10 μM; Inhibitor mode
T23 construct: purchased DiscoverX (Eurofins) SafetyScan44
Protocol: as §2

[24] = target: T24, DAT (Homo sapiens, UniProt Q01959); assay: SafetyScan44; assay type: cell-based; details: 10 μM; Blocker mode
T24 construct: purchased DiscoverX (Eurofins) SafetyScan44
Protocol: as §2

[25] = target: T25, EDNRA (Homo sapiens, UniProt P25101); assay: SafetyScan44; assay type: cell-based; details: 10 μM
T25 construct: purchased DiscoverX (Eurofins) SafetyScan44
Protocol: as §2

[26] = test system: GABAA; assay: SafetyScan44; assay type: cell-based; details: 10 μM
Protocol: as §2

[27] = target: T26, HRH1 (Homo sapiens, UniProt P35367); assay: SafetyScan44; assay type: cell-based; details: 10 μM
T26 construct: purchased DiscoverX (Eurofins) SafetyScan44
Protocol: as §2

[28] = target: T27, HTR1B (Homo sapiens, UniProt P28222); assay: SafetyScan44; assay type: cell-based; details: 10 μM
T27 construct: purchased DiscoverX (Eurofins) SafetyScan44
Protocol: as §2

[29] = target: T28, HTR2B (Homo sapiens, UniProt P41595); assay: SafetyScan44; assay type: cell-based; details: 10 μM
T28 construct: purchased DiscoverX (Eurofins) SafetyScan44
Protocol: as §2

[30] = target: T29, HTR3A (Homo sapiens, UniProt P46098); assay: SafetyScan44; assay type: cell-based; details: 10 μM
T29 construct: purchased DiscoverX (Eurofins) SafetyScan44
Protocol: as §2

[31] = target: T30, INSR (Homo sapiens, UniProt P06213); assay: SafetyScan44; assay type: cell-based; details: 10 μM; Inhibitor mode
T30 construct: purchased DiscoverX (Eurofins) SafetyScan44
Protocol: as §2

[32] = target: T31, LCK (Homo sapiens, UniProt P06239); assay: SafetyScan44; assay type: cell-based; details: 10 μM; Inhibitor mode
T31 construct: purchased DiscoverX (Eurofins) SafetyScan44
Protocol: as §2

[33] = target: T32, MAOA (Homo sapiens, UniProt P21397); assay: SafetyScan44; assay type: cell-based; details: 10 μM; Inhibitor mode
T32 construct: purchased DiscoverX (Eurofins) SafetyScan44
Protocol: as §2

[34] = target: T33, PDE3A (Homo sapiens, UniProt Q14432); assay: SafetyScan44; assay type: cell-based; details: 10 μM; Inhibitor mode
T33 construct: purchased DiscoverX (Eurofins) SafetyScan44
Protocol: as §2

[35] = target: T34, ROCK1 (Homo sapiens, UniProt Q13464); assay: SafetyScan44; assay type: cell-based; details: 10 μM; Inhibitor mode
T34 construct: purchased DiscoverX (Eurofins) SafetyScan44
Protocol: as §2

T19 sequence (P11229 whole entry): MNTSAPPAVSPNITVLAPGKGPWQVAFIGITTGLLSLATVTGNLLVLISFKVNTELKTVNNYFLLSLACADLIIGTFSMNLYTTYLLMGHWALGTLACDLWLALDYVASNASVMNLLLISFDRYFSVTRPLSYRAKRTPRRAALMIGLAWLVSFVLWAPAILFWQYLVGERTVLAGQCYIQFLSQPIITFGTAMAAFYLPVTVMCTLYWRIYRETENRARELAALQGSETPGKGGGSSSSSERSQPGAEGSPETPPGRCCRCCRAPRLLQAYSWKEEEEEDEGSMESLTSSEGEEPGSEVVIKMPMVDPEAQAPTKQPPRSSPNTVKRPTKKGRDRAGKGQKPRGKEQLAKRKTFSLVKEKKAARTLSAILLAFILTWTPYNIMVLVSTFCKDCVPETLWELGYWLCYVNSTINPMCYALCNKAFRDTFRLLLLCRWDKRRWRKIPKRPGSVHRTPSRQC
T27 sequence (P28222 whole entry): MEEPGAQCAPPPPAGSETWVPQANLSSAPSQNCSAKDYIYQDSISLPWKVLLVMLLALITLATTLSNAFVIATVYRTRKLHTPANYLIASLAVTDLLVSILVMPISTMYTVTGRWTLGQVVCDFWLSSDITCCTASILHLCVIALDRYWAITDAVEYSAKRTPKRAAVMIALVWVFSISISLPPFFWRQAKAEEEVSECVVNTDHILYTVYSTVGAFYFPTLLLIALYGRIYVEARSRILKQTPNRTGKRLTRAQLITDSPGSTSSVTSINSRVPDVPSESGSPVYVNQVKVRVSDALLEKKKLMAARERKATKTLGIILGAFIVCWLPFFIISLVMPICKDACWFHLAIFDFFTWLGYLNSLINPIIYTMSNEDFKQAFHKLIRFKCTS
T18 sequence (P32238 whole entry): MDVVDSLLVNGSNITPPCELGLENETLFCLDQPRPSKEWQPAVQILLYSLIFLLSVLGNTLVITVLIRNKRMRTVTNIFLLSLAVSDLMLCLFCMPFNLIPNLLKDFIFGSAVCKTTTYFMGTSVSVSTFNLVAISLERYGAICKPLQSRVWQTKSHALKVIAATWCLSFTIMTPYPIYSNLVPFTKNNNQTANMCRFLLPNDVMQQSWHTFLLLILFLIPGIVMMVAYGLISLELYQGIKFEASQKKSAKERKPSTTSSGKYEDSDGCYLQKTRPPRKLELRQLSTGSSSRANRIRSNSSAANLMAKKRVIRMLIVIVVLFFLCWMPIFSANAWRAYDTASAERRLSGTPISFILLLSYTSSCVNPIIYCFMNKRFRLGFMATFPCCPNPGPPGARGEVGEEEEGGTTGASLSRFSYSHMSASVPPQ
T21 sequence (P34972 whole entry): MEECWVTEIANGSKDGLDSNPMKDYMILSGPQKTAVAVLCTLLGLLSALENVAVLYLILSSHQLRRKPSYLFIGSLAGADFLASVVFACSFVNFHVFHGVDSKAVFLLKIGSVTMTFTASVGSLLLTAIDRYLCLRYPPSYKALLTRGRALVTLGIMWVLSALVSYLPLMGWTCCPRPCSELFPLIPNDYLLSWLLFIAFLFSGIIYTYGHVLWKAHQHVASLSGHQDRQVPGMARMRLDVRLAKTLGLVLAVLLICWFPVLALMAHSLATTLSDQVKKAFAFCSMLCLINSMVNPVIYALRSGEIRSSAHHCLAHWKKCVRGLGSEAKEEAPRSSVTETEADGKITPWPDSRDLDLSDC
T26 sequence (P35367 whole entry): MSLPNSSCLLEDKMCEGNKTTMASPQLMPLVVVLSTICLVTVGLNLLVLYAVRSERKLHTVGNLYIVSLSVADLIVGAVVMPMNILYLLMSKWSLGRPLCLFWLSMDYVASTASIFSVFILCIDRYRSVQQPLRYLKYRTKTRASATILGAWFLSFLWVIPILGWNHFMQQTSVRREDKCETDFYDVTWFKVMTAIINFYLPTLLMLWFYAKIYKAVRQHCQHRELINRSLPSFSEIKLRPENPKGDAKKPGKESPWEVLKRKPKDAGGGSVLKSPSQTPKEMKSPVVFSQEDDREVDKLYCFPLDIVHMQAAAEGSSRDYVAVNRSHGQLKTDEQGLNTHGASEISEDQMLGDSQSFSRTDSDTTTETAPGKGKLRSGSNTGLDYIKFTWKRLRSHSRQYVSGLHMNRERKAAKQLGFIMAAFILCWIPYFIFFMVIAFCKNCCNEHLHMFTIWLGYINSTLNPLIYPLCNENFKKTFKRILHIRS
T25 sequence (P25101 21-427): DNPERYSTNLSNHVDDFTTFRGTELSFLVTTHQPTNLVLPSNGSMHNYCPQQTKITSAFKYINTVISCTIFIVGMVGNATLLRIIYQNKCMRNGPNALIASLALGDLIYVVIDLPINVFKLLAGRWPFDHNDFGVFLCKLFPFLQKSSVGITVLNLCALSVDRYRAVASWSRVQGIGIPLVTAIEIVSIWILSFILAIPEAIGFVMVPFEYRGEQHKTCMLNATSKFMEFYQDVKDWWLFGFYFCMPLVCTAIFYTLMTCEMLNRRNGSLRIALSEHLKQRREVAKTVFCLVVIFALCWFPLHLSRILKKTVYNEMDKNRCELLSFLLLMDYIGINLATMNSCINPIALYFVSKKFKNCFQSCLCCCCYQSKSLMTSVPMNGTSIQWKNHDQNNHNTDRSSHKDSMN
T28 sequence (P41595 whole entry): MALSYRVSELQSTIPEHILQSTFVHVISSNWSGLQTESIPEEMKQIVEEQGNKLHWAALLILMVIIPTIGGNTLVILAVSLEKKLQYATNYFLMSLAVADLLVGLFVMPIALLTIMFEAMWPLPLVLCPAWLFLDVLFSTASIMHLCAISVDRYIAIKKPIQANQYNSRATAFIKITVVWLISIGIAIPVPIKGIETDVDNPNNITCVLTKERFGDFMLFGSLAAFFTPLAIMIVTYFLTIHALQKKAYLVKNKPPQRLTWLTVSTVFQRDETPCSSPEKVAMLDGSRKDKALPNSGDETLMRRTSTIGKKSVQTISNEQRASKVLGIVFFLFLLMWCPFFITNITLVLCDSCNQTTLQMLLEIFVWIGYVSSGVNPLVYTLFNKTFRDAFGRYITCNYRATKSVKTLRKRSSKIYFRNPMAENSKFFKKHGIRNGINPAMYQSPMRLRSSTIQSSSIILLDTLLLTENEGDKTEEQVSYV
T29 sequence (P46098 24-478): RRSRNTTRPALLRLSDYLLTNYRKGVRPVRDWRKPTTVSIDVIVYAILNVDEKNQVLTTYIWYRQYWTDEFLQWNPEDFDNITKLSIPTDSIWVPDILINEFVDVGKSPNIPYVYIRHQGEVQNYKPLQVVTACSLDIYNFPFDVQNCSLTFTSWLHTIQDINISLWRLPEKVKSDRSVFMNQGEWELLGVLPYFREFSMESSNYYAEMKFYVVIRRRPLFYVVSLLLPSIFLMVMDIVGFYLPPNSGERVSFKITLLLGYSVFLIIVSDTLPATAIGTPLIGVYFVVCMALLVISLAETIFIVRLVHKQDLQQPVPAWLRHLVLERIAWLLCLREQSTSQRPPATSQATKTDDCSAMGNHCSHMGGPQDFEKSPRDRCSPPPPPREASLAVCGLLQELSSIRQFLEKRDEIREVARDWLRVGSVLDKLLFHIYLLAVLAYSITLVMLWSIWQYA
T20 sequence (P08172 whole entry): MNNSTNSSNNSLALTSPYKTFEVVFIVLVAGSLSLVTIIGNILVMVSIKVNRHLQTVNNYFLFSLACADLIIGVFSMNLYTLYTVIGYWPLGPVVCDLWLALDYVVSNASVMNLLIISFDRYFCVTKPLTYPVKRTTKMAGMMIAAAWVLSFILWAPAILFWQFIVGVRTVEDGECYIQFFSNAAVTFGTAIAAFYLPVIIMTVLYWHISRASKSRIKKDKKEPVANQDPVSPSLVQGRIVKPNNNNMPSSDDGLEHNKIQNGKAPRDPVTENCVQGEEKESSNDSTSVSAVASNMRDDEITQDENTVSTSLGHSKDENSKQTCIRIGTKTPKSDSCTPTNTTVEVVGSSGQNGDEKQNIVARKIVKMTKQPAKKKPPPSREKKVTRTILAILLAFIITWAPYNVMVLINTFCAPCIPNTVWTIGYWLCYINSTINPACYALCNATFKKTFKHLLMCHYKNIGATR
T14 sequence (O00329 whole entry): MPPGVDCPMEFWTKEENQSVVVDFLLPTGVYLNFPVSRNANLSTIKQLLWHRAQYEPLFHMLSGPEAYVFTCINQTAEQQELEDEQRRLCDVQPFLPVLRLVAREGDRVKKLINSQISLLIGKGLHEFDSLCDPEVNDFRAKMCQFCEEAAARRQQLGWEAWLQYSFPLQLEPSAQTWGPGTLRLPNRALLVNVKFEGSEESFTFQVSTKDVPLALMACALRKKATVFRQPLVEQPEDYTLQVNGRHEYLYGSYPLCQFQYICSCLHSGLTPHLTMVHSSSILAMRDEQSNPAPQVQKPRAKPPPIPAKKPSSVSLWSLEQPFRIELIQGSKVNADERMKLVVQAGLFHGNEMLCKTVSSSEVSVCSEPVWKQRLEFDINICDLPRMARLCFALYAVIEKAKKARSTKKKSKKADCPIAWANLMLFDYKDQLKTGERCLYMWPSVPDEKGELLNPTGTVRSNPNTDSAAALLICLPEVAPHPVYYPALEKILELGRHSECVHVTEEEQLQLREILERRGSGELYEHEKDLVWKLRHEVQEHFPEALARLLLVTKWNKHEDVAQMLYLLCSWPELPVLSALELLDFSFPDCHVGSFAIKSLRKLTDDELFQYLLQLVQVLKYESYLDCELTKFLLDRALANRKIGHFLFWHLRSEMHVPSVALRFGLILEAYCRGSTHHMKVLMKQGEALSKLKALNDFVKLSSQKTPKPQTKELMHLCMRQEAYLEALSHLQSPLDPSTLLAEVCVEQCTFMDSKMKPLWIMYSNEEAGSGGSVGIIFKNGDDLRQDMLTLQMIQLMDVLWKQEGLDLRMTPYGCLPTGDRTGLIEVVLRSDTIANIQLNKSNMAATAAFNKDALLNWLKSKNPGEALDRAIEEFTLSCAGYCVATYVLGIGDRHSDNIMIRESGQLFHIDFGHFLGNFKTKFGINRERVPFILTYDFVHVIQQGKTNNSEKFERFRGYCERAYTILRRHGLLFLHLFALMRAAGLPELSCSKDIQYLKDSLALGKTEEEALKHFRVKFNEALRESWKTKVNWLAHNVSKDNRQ

## CC(C)(C)N1CCN(Cc2cc3nc(-c4cncc5[nH]ccc45)cc(N4CCOCC4)n3n2)CC1 [CPL302-253]
[1]
  Remaining binding (%): 36%
[2]
  Remaining binding (%): 35%
[3]
  Remaining binding (%): 96%
[4]
  Remaining binding (%): 12%
[5]
  Remaining binding (%): 82%
[6]
  Remaining binding (%): 45%
[7]
  Remaining binding (%): 54%
[8]
  Remaining binding (%): 92%
[9]
  Remaining binding (%): 0%
[10]
  Remaining binding (%): 44%
[11]
  Remaining binding (%): 100%
[12]
  Remaining binding (%): 99%
[13]
  Remaining binding (%): 42%
[14]
  Remaining binding (%): 1.1%
[15]
  Remaining binding (%): 94%
[16]
  Remaining binding (%): 33%
[17]
  % Response CAV1.2 Blocker: -1.1%
[18]; Agonist mode
  % Response CCKAR Agonist: -2.8%
[18]; Antagonist mode
  % Response CCKAR Antagonist: -2.4%
[19]; Agonist mode
  % Response CHRM1 Agonist: 1.2%
[19]; Antagonist mode
  % Response CHRM1 Antagonist: 48.1%
[20]; Agonist mode
  % Response CHRM2 Agonist: 8.2%
[20]; Antagonist mode
  % Response CHRM2 Antagonist: 35.2%
[21]; Agonist mode
  % Response CNR2 Agonist: 16.4%
[21]; Antagonist mode
  % Response CNR2 Antagonist: 1.1%
[22]
  % Response COX1 Inhibitor: 4.7%
[23]
  % Response COX2 Inhibitor: 11.9%
[24]
  % Response DAT Blocker: 56.1%
[25]; Agonist mode
  % Response EDNRA Agonist: -3.3%
[25]; Antagonist mode
  % Response EDNRA Antagonist: -4.8%
[26]; Blocker mode
  % Response GABAA Blocker: 1.4%
[26]; Opener mode
  % Response GABAA Opener: -2.3%
[27]; Agonist mode
  % Response HRH1 Agonist: -0.2%
[27]; Antagonist mode
  % Response HRH1 Antagonist: 7.2%
[28]; Agonist mode
  % Response HTR1B Agonist: 8.0%
[28]; Antagonist mode
  % Response HTR1B Antagonist: 0.1%
[29]; Agonist mode
  % Response HTR2B Agonist: 1.5%
[29]; Antagonist mode
  % Response HTR2B Antagonist: 12.6%
[30]; Blocker mode
  % Response HTR3A Blocker: 19.5%
[30]; Opener mode
  % Response HTR3A Opener: -0.8%
[31]
  % Response INSR Inhibitor: -6.5%
[32]
  % Response LCK Inhibitor: 16.3%
[33]
  % Response MAOA Inhibitor: 8.5%
[34]
  % Response PDE3A Inhibitor: -8.1%
[35]
  % Response ROCK1 Inhibitor: 10.3%
